# Values quoted from earlier work as cited in patent US9510613B2, “Panaxadiol-containing composition” (LION CORPORATION, priority 2011, dated 2016).
# Conditions: commercial component, Table 3
row,Substance,HLB
1,Sucrose Palmitic Acid Ester,16
2,Glycerin Monostearate Citrate,9.5
3,Sucrose Stearic Acid Ester,16
4,Sucrose Lauric Acid Ester,16
5,Sucrose Myristic Acid Ester,16
